Assay results published in PMC8963105, “A Novel Modulator of the Renin–Angiotensin System, Benzoylaconitine, Attenuates Hypertension by Targeting ACE/ACE2 in Enhancing Vasodilation and Alleviating Vascular Inflammation” (Frontiers in Pharmacology, 2022).

Tests used:
COX-2 = COX-2 expression in aorta of SHRs (Western blot); type: in vivo, rat; details: oral 14 days
Description: All three MDAs (BAC, BMC, and BHC) were purchased from Nature-Standard Co., Ltd. (Shanghai, China) and their purities were all over 98%. The anti-hypertensive effects of MDAs were studied in both acute and chronic experiments. The 16-week-old SHRs were used in animal experiments, and each group had six rats. In the acute experiment, drug administration was via i.v. injection. For i.v. injection, the animals were randomly assigned into four groups: vehicle (0.1% DMSO–0.9% salt solution, n = 6), low-dose group (0.6 mg kg^−1 body weight, n = 6), medium-dose group (2 mg kg^−1 body weight, n = 6), and high-dose group (6 mg kg^−1 body weight, n = 6). The drug was administered using a venous catheter. In chronic experiments, the animals were randomly assigned into five groups: vehicle (5% Tween 80–0.9% salt solution, n = 6), captopril group (5 mg kg^−1 body weight, n = 6), low-dose group (3 mg kg^−1 body weight, n = 6), medium-dose group (10 mg kg^−1 body weight, n = 6), and high-dose group (30 mg kg^−1 body weight, n = 6). Oral administration with drug or 5% Tween 80–0.9% salt solution was carried out once a day, and continued for 14 days. […] Blood pressure was recorded in real time.
The cell samples and tissue sample were collected and placed in ice rapidly. […] Protein concentration in cell lysates was measured using a Bio-Rad DC Protein Assay Kit […]. […]

[1] = test system: spontaneously hypertension rats (SHRs); experiment: chronic experiment: blood pressure, heart rate and aorta histology after 14-day oral administration in SHRs; type: in vivo, rat; details: for DBP: 14 days (SHRs 130 ± 5); for MAP: 14 days (SHRs 151 ± 5); for SBP: 14 days (SHRs 172 ± 6)
Procedure: The SHRs were surgically implanted with a catheter via the left femoral artery, vein, and stomach after anesthetizing with 2% pentobarbital sodium (40 mg kg^−1 i.p.,). A pressure sensor was inserted into the terminal of the arterial catheter and connected to a PowerLab system (ADInstruments, New South Wales, Australia) for real-time blood pressure monitoring.
All three MDAs (BAC, BMC, and BHC) were purchased from Nature-Standard Co., Ltd. (Shanghai, China) and their purities were all over 98%. The anti-hypertensive effects of MDAs were studied in both acute and chronic experiments. The 16-week-old SHRs were used in animal experiments, and each group had six rats. In the acute experiment, drug administration was via i.v. injection. For i.v. injection, the animals were randomly assigned into four groups: vehicle (0.1% DMSO–0.9% salt solution, n = 6), low-dose group (0.6 mg kg^−1 body weight, n = 6), medium-dose group (2 mg kg^−1 body weight, n = 6), and high-dose group (6 mg kg^−1 body weight, n = 6). The drug was administered using a venous catheter. In chronic experiments, the animals were randomly assigned into five groups: vehicle (5% Tween 80–0.9% salt solution, n = 6), captopril group (5 mg kg^−1 body weight, n = 6), low-dose group (3 mg kg^−1 body weight, n = 6), medium-dose group (10 mg kg^−1 body weight, n = 6), and high-dose group (30 mg kg^−1 body weight, n = 6). Oral administration with drug or 5% Tween 80–0.9% salt solution was carried out once a day, and continued for 14 days. The drugs were dissolved in 0.1% DMSO–0.9% salt solution for intravenous injection and in 5% Tween 80–0.9% salt solution for oral administration. Blood pressure was recorded in real time.
Real-time blood pressure level was monitored after drug treatment in the acute and chronic experiments. All animals were surgically implanted with a catheter in the left femoral artery. After connection to the monitor, all animals were placed at room temperature of 25°C for 0.5–1 h and the average blood pressure value was calculated based on a real-time blood pressure curve (10 s of every 30 s).
After euthanizing the rats with sodium pentobarbital (100 mg kg^−1, i.p.) administration in combination with isoflurane inhalation, the aortas were harvested directly according to a previously described method. The aortas were fixed in 4% paraformaldehyde for 24 h and embedded in paraffin. The cross-sections (5 μm) were stained with hematoxylin and eosin or subjected to immunostaining. Immunofluorescence staining for ACE and ACE2 was performed according to the manufacturer’s instructions (Servicebio, Wuhan, China).

HUVECs = experiment: CCK-8 cell viability (drug cytotoxicity) in HUVECs; type: cell-based, human; details: dose lower than 100 μM, 48 h
Description: Human umbilical vein endothelial cells (HUVECs) were isolated from umbilical cords as previously described ([Jaffe et al., 1973]). They were purchased from ATCC (cat# CRL-1444, Manassas, VA, United States) and cultured in endothelial cell medium (ECM, ScienCell, Carlsbad, CA, United States) supplemented with 5% FBS, 1% endothelial cell growth supplement, and 1% antibiotics (Sigma, St. Louis, MO, United States). Cells harvested between the third and tenth passages were used in the experiments. Cells were cultured until they were ∼80% confluent. After pre-starving in a quiescing ECM supplemented with 1% FBS and 1% antibiotics for 24 h, the cells were treated using different concentrations of BAC (Control, DMSO, 25, 50, and 100 μM, dissolved in 0.1% DMSO–DMEM) with or without MG132, an inhibitor of proteasome, at 20 nM or 40 nM for 24 h. Then, cell samples were collected for Western blot analysis or immunofluorescence staining.
The potential of cells to maintain or recover viability after treatment with each agent was determined. Cell viability can be distinguished from the all-or-nothing states of life and death using a quantifiable index between 0 and 1 (or 0 and 100%). Cell viability was measured by a Cell Counting Kit-8 (CCK-8) Assay Kit (EnoGene, Nanjing, China). […] After 1 h of incubation, the absorbance was measured at 450 nm using a microplate reader (Thermo Fisher Scientific). […]

CCN1CC2(COC)C(O)CC(OC)C34C5CC6(O)C(OC)C(O)C(O)(C5C6OC(=O)c5ccccc5)C(C(OC)C23)C14 (centres unmarked) [BAC, Benzoylaconitine]
expression of COX-2 (COX-2): downregulated
blood pressure versus vehicle group ([1]; oral 3 mg kg^−1 once a day, 14 days): did not significantly differ
DBP ([1]; oral 10 mg kg^−1 once a day): 119 ± 8 mmHg
MAP ([1]; oral 10 mg kg^−1 once a day): 136 ± 7 mmHg
SBP ([1]; oral 10 mg kg^−1 once a day): 154 ± 6 mmHg
heart rate ([1]; oral 30 mg kg^−1 once a day, 14 days): reduce the heart rate
DBP ([1]; oral 30 mg kg^−1 once a day): 101 ± 7 mmHg
MAP ([1]; oral 30 mg kg^−1 once a day): 121 ± 6 mmHg
SBP ([1]; oral 30 mg kg^−1 once a day): 139 ± 6 mmHg
vascular smooth muscle thickness (hematoxylin and eosin stain of aorta) ([1]; oral administration, 14 days): reverse smooth muscle remodeling
cell viability (toxicity on HUVECs) (HUVECs): no significant effect
